This is an account of results in PMC3705751 (Evidence-based Complementary and Alternative Medicine : eCAM, 2013).

Read-outs that look alike come from different tables or passages of the source.

Data set [1] has as its target NA of PR8 H1N1 influenza A virus (Influenza A virus, UniProt P03468). Description: NA enzymatic activity inhibition, fluorometric MUNANA assay. It counts as biochemical, Influenza A/Puerto Rico/8/34 (H1N1). From the text: Pandemic influenza A/Taiwan/CMUH/2009 (H1N1) (pandemic 2009 H1N1 virus), seasonal influenza A/Taiwan//CMUH/2007 (H1N1), 2009 (H1N1), and 2009 (H3N2) (seasonal 2007 H1N1, 2009 H1N1, and 2009 H3N2 influenza A viruses) were isolated in the clinical virology laboratory of China Medical University Hospital, Taiwan. Influenza A/Puerto Rico/8/34 (H1N1) (PR8 H1N1 virus) was kindly provided by Dr. Wei-Li Hsu (Institute of Microbiology and Public Health, National Chung-Hsing University). HA subtype of all influenza A viruses used was confirmed by RT-PCR or real-time RT-PCR with specific primers (see Supplementary Table 1 in the Supplementary Material available online at http://dx.doi.org/10.1155/2013/750803).
Fluorometric substrate 2′-(4-methylumbelliferyl)-α-D-N-acetylneuraminic acid (MUNANA; Sigma) was used to determine NA activity as described in a prior report. To determine NA activity of pandemic 2009 H1N1 and seasonal 2007 H1N1 viruses, serial 10-fold dilution of viruses (10^6 PFU/mL) was added to the wells of a 96-well plate, mixed with MUNANA solution at final concentration of 300 μM, and then incubated for 1 h at 37°C. Relative NA enzymatic activity was determined as the fluorescent intensity at a 360 nm excitation and a 460 nm emission wavelength (Multidetection Fluorescence-Luminescence Microplate Reader). […] Concentration of each extract or flavonoid showing 50% inhibitory effect (IC50) compared to the control with no inhibitor was determined by computer program (provided by John Spouge, National Institutes of Health).

Data set [2] has as its system seasonal 2007 H1N1 influenza A virus. Description: microbe, parasite or virus in culture. Format: cell-based. The following applies: read-out: Plaque inhibition IC50 values, Seasonal 2007 H1N1.
The subject of data set [3] is pandemic 2009 H1N1 influenza A virus. Description: Plaque inhibition assay in MDCK cells. Format: cell-based, Pandemic influenza A/Taiwan/CMUH/2009 (H1N1). The following applies: 72 h, read-out: Plaque inhibition IC50 values, Pandemic 2009 H1N1.
The nature of another data set: Cytotoxic assay (MTT). The following applies: dog, MDCK cells.
A short description of a further data set: in vitro. The following applies: dog.
Setting [4] is: flavonoids, MUNANA substrate, read-out: NA inhibition IC50 values, PR8 H1N1.

Chain of NA of PR8 H1N1 influenza A virus (P03468 whole entry): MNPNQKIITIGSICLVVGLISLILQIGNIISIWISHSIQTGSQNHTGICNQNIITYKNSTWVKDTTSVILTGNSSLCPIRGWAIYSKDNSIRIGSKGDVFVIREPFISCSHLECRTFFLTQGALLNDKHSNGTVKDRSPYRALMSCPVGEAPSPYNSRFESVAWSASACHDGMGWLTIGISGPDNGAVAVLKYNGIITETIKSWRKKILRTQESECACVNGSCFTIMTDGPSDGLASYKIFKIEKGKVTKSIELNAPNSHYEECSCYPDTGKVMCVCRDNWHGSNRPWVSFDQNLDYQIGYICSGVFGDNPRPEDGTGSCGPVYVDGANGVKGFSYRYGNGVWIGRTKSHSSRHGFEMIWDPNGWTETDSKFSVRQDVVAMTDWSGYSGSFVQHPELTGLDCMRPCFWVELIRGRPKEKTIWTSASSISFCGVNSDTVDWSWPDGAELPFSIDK

In the case of `O=c1cc(-c2ccc(O)cc2)oc2cc(O)cc(O)c12` [Apigenin], the IC50 (in general, the point on the concentration scale where inhibition reaches its midpoint) in data set [1] was determined as 81.3 µM; in data set [2] (flavonoids, MDCK cells, 3 days), 119.61 ± 0.032 µM; in data set [3], 94.16 ± 0.047 µM. The same compound gave a CC50 at 48 h in “Cytotoxic assay (MTT)” of 218.34 ± 0.11 µM.
For `O=c1cc(-c2ccccc2)oc2cc(O)c(O)c(O)c12` [Baicalein], the IC50 was found to be 0.181 µM in data set [1]; 0.018 µM in data set [2] (Influenza A virus, MDCK, 72 h); 0.02 µM in data set [3]. This compound registered a CC50 at 48 h in “Cytotoxic assay (MTT)” of 0.045 ± 0.088 µM.
With `O=C(O)[C@H]1O[C@@H](Oc2cc3oc(-c4ccccc4)cc(=O)c3c(O)c2O)[C@H](O)[C@@H](O)[C@@H]1O` [Baicalin], the IC50 is 2.75 µM in data set [1] (setting [4]); more than 0.01 µM in data set [2] (Influenza A virus, MDCK, 72 h); more than 0.01 µM in data set [3]. Also, the CC50 in “in vitro” was determined as 0.015 µM.
On to `O=c1cc(-c2ccccc2)oc2cc(O)cc(O)c12` [Chrysin], for which the IC50 in data set [1] (setting [4]) was 132 µM; in data set [2] (Influenza A virus, MDCK, 72 h), more than 200 µM; in data set [3], more than 200 µM. Further, the CC50 in the data set “in vitro” was 266.66 ± 0.077 µM.
As to Chloroform, the “CC50 MDCK cells” value with MDCK cells was 829.77 ± 0.009 µg/mL.
The same measure, in the same setting: for MeOH the value was 923.12 ± 0.017 µg/mL.
